Patent US20230348418A1, “ISOINDOLINONE COMPOUNDS” (Monte Rosa Therapeutics, Inc., priority 2021, published 2023)
Like-named read-outs stand apart in the source and are kept apart here.

How the values were obtained:
[1] = target: T1, Full length wild-type cereblon CRBN (Homo sapiens, UniProt Q96SW2); assay: Fluorescence polarization (FP) assay, cereblon binding
T1 construct: Full length wild-type cereblon CRBN (80.0 nM, 10 μL) was incubated in assay buffer
How it was run: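 Full-length wild-type human CRBN (80.0 nM) was preincubated with compound for 30 min at room temperature in 20 mM HEPES pH 8.0, 150 NaCl, 0.5 mM TCEP and 0.05% Tween 20. A Cy5-type thalidomide-linked fluorescent probe was then added. The FP signal was normalized to the DMSO control to derive IC50.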

[2] = target: T2, GSPT1 (Homo sapiens, UniProt P15170+Q96SW2); assay: Immunofluorescence assay for GSPT1 degradation in CAL-51 cells (Example 4); type: cell-based; parameters: host or cells: CAL-51
T2 sequence (P15170 whole entry): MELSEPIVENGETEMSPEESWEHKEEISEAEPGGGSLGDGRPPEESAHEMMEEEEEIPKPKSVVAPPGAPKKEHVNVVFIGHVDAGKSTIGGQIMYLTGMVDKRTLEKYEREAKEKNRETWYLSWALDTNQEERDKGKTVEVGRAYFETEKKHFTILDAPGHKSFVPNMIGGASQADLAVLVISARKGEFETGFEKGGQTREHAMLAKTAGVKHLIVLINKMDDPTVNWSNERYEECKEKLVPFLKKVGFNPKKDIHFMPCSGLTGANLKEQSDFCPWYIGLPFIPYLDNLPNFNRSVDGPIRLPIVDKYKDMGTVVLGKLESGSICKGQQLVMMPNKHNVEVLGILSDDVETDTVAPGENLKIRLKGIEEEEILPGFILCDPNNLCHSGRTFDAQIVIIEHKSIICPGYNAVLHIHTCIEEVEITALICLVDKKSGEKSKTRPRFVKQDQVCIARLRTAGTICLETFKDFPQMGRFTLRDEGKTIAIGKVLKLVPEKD
T2 sequence (Q96SW2 whole entry): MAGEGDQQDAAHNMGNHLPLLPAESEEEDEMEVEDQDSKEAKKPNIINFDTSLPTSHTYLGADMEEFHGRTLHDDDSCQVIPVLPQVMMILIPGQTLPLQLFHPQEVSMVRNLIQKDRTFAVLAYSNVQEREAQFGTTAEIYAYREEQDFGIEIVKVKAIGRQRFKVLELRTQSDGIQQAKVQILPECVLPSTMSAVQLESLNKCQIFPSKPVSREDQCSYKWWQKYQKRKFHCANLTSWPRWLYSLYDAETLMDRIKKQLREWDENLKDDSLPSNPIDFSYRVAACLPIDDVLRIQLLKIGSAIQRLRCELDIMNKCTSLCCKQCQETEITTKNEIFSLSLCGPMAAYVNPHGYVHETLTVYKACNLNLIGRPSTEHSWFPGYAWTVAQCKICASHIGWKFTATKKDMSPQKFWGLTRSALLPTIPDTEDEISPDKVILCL
T2 sequence (Q16531 2-1140 partner limits assumed): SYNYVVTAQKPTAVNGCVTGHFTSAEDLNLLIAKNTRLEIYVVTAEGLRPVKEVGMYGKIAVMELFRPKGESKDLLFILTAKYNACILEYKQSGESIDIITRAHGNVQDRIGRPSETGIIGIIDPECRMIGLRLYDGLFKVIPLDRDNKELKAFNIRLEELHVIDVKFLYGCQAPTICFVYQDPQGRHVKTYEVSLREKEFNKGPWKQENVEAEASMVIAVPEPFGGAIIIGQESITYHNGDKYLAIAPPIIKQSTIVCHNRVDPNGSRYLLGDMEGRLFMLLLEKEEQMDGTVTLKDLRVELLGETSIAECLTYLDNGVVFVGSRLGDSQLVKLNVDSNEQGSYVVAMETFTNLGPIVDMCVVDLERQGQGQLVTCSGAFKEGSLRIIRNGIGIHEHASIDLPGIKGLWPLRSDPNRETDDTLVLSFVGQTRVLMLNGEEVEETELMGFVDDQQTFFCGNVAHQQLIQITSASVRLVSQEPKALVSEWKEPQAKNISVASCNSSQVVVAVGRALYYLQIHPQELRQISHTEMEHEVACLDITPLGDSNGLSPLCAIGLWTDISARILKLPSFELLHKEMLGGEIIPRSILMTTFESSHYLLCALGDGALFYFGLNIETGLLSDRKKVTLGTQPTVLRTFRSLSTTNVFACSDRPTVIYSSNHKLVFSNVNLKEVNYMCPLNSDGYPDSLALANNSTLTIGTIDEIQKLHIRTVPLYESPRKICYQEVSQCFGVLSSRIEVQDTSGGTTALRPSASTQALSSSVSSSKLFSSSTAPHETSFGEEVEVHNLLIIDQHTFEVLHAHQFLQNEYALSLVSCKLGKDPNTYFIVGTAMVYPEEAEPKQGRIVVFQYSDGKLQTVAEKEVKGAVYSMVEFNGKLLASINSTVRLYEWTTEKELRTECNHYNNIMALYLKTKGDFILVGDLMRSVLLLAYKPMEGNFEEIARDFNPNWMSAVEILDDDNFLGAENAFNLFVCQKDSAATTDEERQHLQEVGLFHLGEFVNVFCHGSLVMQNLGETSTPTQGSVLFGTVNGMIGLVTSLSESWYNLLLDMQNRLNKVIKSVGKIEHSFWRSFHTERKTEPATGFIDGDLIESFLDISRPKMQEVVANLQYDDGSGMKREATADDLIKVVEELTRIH
Procedure: The representative compounds were tested in an immunofluorescence assay for their activity to bind to degrade GSPT1. […] Compounds were stored at 10 mM DMSO stocks. […] Cells were subsequently rinsed with PBS and fixed in 10% Formalin solution (50 μl, Sigma HT5011)) for 20 mins at room temperature. […] Following three further PBS washes, […] blocking buffer (1% BSA, Sigma A4503, in PBS) was added for 45 min for signal-to-noise reduction.
Primary antibody (human GSPT1, Sigma HPA052488) was diluted in blocking buffer (dil.1/300, 35 μl/well) and incubated with the cells overnight at 4° C. […] After three final PBS washes, samples were conserved in 100 μl PBS in the dark, until measurement. Image acquisition was performed on the Operetta High-Content Imager (Perkin-Elmer). […] For the determination of GSPT1 DC50 values, a custom algorithm implemented in the PerkinElmer image analysis software Harmony-Acapella® was developed. After user-defined setting of adjustment parameters, the analysis was run identically without human intervention for all image fields. DAPI staining of the nuclei was used to determine the location of cells using standard nuclei detection modules. Segmentation artifacts were removed by threshold-based filters for area, roundness and intensity. The outline of the cells was determined analogously from the sum of the normalized, smoothed DAPI and Actin channel, starting from each nucleus.
GSPT1 degradation (DC50) was calculated after normalization to controls and data import in CDD vault Database, using non-linear regression.

[3] = target: T3, IKZF1 (Ikaros) (Homo sapiens, UniProt Q13422); assay: Western blot selectivity assay in MM1S cells: IKZF1; type: cell-based; parameters: key: A represents a no degradation observed at 30 μM; B represents trace degradation at 30 μM (below 20%); C represents weak degradation at 30 μM (below 50%); D represents degradation at 30 μM (>90%); E represents degradation at 3 μM (>90%); F represents degradation at 0.3 μM (>90%); conditions: MM1S cells, 0.3, 3 and 30 μM, 6 hours
T3 construct: endogenous in cells; host or cells: MM1S (ATCC CRL-2974)
T3 sequence (Q96SW2 whole entry partner): as the sequence (Q96SW2 whole entry) above
T3 sequence (Q16531 2-1140 partner limits assumed): as the sequence (Q16531 2-1140 partner limits assumed) above
T3 sequence (Q13422 whole entry): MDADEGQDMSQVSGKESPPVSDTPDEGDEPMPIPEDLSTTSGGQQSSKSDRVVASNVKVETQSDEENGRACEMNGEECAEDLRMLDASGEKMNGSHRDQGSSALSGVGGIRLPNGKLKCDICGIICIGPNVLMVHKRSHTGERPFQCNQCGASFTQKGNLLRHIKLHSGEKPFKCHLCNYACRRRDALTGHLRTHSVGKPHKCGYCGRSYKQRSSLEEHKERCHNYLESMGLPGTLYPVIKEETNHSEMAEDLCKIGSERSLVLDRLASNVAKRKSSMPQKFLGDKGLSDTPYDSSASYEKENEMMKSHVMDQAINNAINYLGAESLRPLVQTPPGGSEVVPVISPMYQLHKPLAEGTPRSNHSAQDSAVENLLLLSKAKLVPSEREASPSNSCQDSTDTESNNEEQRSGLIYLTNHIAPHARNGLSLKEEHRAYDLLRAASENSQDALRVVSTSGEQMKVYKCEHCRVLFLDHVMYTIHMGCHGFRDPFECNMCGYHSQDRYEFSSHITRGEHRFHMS
Procedure: (§1) MM1S cells were purchased from ATCC (cat. Number CRL-2974), sub-cultured in 90% RPMI 1640 with 10% FBS, supplemented with 1×P/S and incubated at 37° C., 5% CO2. Compounds were stored as 10 mM DMSO stock. For the assay, MM1S cells (3 million cells/well) were plated in 6-well plates and incubated over night. Cells were treated with respective compounds using a serial dilution: 0.3 μM, 3 μM and 30 μM as well as a vehicle only (DMSO) control for 6 hours. Media with suspension cells was subsequently transferred to 15 mL conical tubes, wells rinsed twice with ice-cold PBS and merged with cell suspension in respective 15 mL conical tube. Cells were spinned down, supernatant aspirated, pellets resuspended in ice-cold PBS and transferred to microtubes. Cells were spinned down, supernatant aspirated and pellets resuspended in 120 μL RIPA lysis buffer supplemented with protease and phosphatase inhibitors. Cell lysates were incubated on ice for 20 minutes followed by centrifugation at >20,000×g for 5 min. Supernatants were transferred to fresh microtubes and stored at −80° C. Total protein concentration was determined using a BCA assay with a BSA standard curve and concentration of all samples was adjusted to 1 mg/mL. 25 μL 4×LDS sample buffer supplemented with 100 mM DTT was added to 75 μL sample. Samples were centrifuged (8,000×g, 1 min) and incubated at 95° C. for 5 min followed by another centrifugation step (8,000×g, 1 min). 20 μL of each sample was loaded on a 4-12% gel alongside a protein molecular weight marker. Gels were run in the presence of MOPS buffer at 80 Volts for 30 min, followed by 120 Volts for 1.5 h and proteins subsequently transferred onto nitrocellulose membranes at 20 Volts for 7 min using an iBlot2 Gel Transfer Device. Membranes were then cut horizontally into two pieces, covering 80-50 kDa and 50-25 kDa. Blocking the membranes was performed by gently shaking in 5% (w/v) skim milk in TSB-T for 1 hr at room temperature. All primary antibodies were used at a 1/1000 in 5% (w/v) BSA dissolved in TBST and incubated with membranes over night at 4° C. Anti-IKZF1 (Ikaros; D6N9Y; 14859S), anti-IKZF3 (Aiolos; D1C1E; 15103S) antibodies were purchased from Cell Signalling Technology, anti-ZFP91 antibody from Bethyl laboratories, anti-GSPT1 from Sigma Aldrich (HPA052488) and anti CK1alpha from AbCam (ab206652). After three washes with 1×TBST for 5 min, HRP-coupled secondary antibodies diluted in 5% (w/v) BSA/TBST (Goat Anti-Rb IgG, dil. 1/10,000; Goat Anti-Mouse IgG, dil. 1/5000) were added for 1 hr at room temperature. After three washes with 1×TBST (5 minutes each), membranes were incubated with ECL reagent for 1 min at room temperature. Chemiluminescence signals were then detected using a LAS-4000 system with default settings and signals quantified using Image Studio Lite software (version 5.2). Membrane parts previously incubated with antibody against CK1alpha were stripped off antibodies by incubating with stripping buffer for 30 minutes followed by three washed with TBST (5 min each), blocking with 5% (w/v) skim milk for 1 hr, and incubation with primary antibody against GAPDH overnight at 4° C. Subsequent washes, incubation with secondary antibody and signal acquisition were performed as described above.

[4] = target: T2, GSPT1; assay: Western blot selectivity assay in MM1S cells: GSPT1; type: cell-based; parameters: endogenous in cells; host or cells: MM1S (ATCC CRL-2974); conditions: MM1S cells, 0.3, 3 and 30 μM, 6 hours
Procedure: as §1

[5] = compounds with code A, read-out: DC50 value
[6] = bounds stated in the text lists b2059-b2061, read-out: IC50 value
[7] = cereblon binding, class code, read-out: rFP IC50
[8] = CAL-51 cells, 6 hours, read-out: Code (activity for GSPT1 degradation, DC50)

T1 sequence (Q96SW2 whole entry): as the sequence (Q96SW2 whole entry) above

Compound | IC50 [1, 6] [nM] | IC50 [1, 7] [nM] | IKZF1 degradation [3] | DC50 [2, 8] [nM] | IC50 ([1]; IC50 value, bounds stated in the text lists b2059-b2061) [nM] | IC50 ([1]; rFP IC50 [nM], cereblon binding, class code) [nM] | DC50 [2, 5] [nM] | DC50 ([2]; read-out: Code (activity for GSPT1 degradation, DC50), CAL-51 cells, 6 hours) [nM] | GSPT1 degradation [4]
Cc1c(Cl)cc(NC(=O)OCc2ccc3c(c2)C(=O)N(C2CCC(=O)NC2=O)C3)cc1CC1COCCN1C (stereo not drawn) [Compound 150, (2-(2,6-dioxopiperidin-3-yl)-3-oxoisoindolin-5-yl) methyl(3-chloro-4-methyl-5-((4-methylmorpholin-3-yl)methyl)phenyl)carbamate] |  |  |  |  | < 1700 | 1100 to 1700 | ≤ 30 | < 30 | 
CC(F)(F)c1ccc(NC(=O)OCc2ccc3c(c2)C(=O)N(C2CCC(=O)NC2=O)C3)cc1 (stereo not drawn) [Compound 99] | < 1700 | 1100 to 1700 |  | 30 to 300 |  |  |  |  | 
O=C1CCC(N2Cc3ccc(COC(=O)Nc4ccc(N5CCCCC5)nc4)cc3C2=O)C(=O)N1 (stereo not drawn) [Compound 15] | < 1700 | 500 to 1100 | A |  |  |  |  |  | F (F represents degradation at 0.3 μM (>90%))
CC(C)(C)c1ccc(NC(=O)OCc2ccc3c(c2)C(=O)N(C2CCC(=O)NC2=O)C3)cn1 (stereo not drawn) [Compound 43] |  |  | A |  |  |  |  |  | F (F represents degradation at 0.3 μM (>90%))

Continued, in another order:

IC50 [1, 6] [nM] | IC50 [1, 7] [nM] | IKZF1 degradation [3] | DC50 [2, 8] [nM] | Compound | IC50 ([1]; IC50 value, bounds stated in the text lists b2059-b2061) [nM] | IC50 ([1]; rFP IC50 [nM], cereblon binding, class code) [nM] | DC50 [2, 5] [nM] | DC50 ([2]; read-out: Code (activity for GSPT1 degradation, DC50), CAL-51 cells, 6 hours) [nM] | GSPT1 degradation [4]
< 1700 | 1100 to 1700 | A |  | Cc1c(Cl)cc(NC(=O)OCc2ccc3c(c2)C(=O)N(C2CCC(=O)NC2=O)C3)cc1OCCN1CCOCC1 (stereo not drawn) [Compound 48] |  |  |  |  | F (F represents degradation at 0.3 μM (>90%))
< 500 | < 500 |  | 30 to 300 | CCc1cc(NC(=O)OCc2ccc3c(c2)C(=O)N(C2CCC(=O)NC2=O)C3)sn1 (stereo not drawn) [Compound 151] |  |  |  |  | 
< 1100 | 500 to 1100 |  | < 30 | O=C1CCC(N2Cc3ccc(COC(=O)Nc4cccc(OC5CC5(F)F)c4)cc3C2=O)C(=O)N1 (stereo not drawn) [Compound 140] |  |  | ≤ 30 |  | 
